Assay results as given in US20240239752A1, “BICYCLIC HETEROAROMATIC INHIBITORS OF KLK5” (BioCryst Pharmaceuticals, Inc., priority 2021, published 2024).

Target: T1, recombinant human KLK5 (Homo sapiens, UniProt Q9Y337)
T1 construct: purchased Novoprotein or R&D Systems C415 or 1108-SE
T1 sequence (Q9Y337 23-293): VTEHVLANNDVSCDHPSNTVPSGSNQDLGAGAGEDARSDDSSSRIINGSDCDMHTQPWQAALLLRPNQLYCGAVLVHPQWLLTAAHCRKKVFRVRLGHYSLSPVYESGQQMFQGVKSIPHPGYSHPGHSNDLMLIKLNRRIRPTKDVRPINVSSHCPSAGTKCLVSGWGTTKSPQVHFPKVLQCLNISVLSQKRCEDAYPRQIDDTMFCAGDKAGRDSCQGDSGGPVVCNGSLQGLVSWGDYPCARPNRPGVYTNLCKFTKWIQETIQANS
Assay: Kallikrein (KLK) 5 enzymatic assay (Boc-VPR-AMC fluorogenic substrate)
Assay type: biochemical
Conditions: recombinant human KLK5 0.1 μg/well, Boc-VPR-AMC 100 μM, pH 7.5, room temperature, 1% DMSO; tested a minimum of three times
Procedure, shortened: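 Recombinant human KLK5 (0.1 μg/well) was preincubated with compound at room temperature in 0.1 M NaH2PO4, pH 7.5, 1% DMSO, then started with 100 μM Boc-VPR-AMC. The rate was followed at 380/460 nm, and IC50 came from percent inhibition relative to enzyme alone, with at least three runs.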

Molecule `CC(C)(C)OC(=O)N1CCC2(CC1)CC(Oc1ccccc1CC(=O)O)c1cc(-c3cccc4c(N)nccc34)ccc12` (stereo not drawn) [Compound 347d, 2-(2-((5-(1-aminoisoquinolin-5-yl)-1′-(tert-butoxycarbonyl)-2,3-dihydrospiro[indene-1,4′-piperidin]-3-yl)oxy)phenyl)acetic acid] has an IC50 of less than 1000 nM.

With `Nc1nccc2c(-c3ccc4nn(C5CCCCC5)c(COc5ccccc5CC(=O)O)c4c3)cccc12` [Compound 14f, 2-(2-((5-(1-aminoisoquinolin-5-yl)-2-cyclohexyl-2H-indazol-3-yl)methoxy)phenyl)acetic acid] the IC50 was 1000 to 10000 nM.

`COc1ccc(OCc2c3cc(-c4cccc5c(N)nccc45)ccc3nn2C2CCC2)c(CC(=O)O)c1` [Compound 158b, 2-(2-((5-(1-aminoisoquinolin-5-yl)-2-cyclobutyl-2H-indazol-3-yl)methoxy)-5-methoxyphenyl)acetic acid] was tested, and the IC50 was 1000 to 10000 nM.

`Nc1nccc2ccc(-c3ccc4nc(C5CC5)cc(COc5ccccc5CC(=O)O)c4c3)cc12` [Compound 12e, 2-(2-((6-(1-aminoisoquinolin-7-yl)-2-cyclopropylquinolin-4-yl)methoxy)phenyl)acetic acid] showed an IC50 greater than 10000 nM.

In the case of `Nc1nccc2c(-c3ccc4c(c3)c(COc3ccccc3CC(=O)O)cn4C3CCOC3)cccc12` (stereo not drawn) [Compound 458f, 2-(2-((5-(1-aminoisoquinolin-5-yl)-1-(tetrahydrofuran-3-yl)-1H-indol-3-yl)methoxy)phenyl)acetic acid], the IC50 is reported as less than 1000 nM.

`Nc1nccc2ccc(-c3ccc4c(c3)c(COc3ccccc3CC(=O)O)nn4C3CC4(CCC4)C3)cc12` [Compound 112e, 2-(2-((5-(1-aminoisoquinolin-7-yl)-1-(spiro[3.3]heptan-2-yl)-1H-indazol-3-yl)methoxy)phenyl)acetic acid] was tested, and the IC50 was less than 1000 nM.

`CC(C)n1nc(COc2ccccc2CC(=O)O)c2cc(-c3ccc4cccc(N)c4c3)ccc21` [Compound 70c, 2-(2-((5-(8-aminonaphthalen-2-yl)-1-isopropyl-1H-indazol-3-yl)methoxy)phenyl)acetic acid] showed an IC50 greater than 10000 nM.

With `CC(C)n1nc(COc2ccccc2CC(=O)O)c2cc(-c3cccc4c3OCC4N)ccc21` (stereo not drawn) [Compound 212c, 2-(2-((5-(3-amino-2,3-dihydrobenzofuran-7-yl)-1-isopropyl-1H-indazol-3-yl)methoxy)phenyl)acetic acid] the IC50 was 1000 to 10000 nM.

`CC(C)(C)OC(=O)N1CC(n2nc(COc3ccccc3CC(=O)O)c3cc(-c4ccc5ccnc(N)c5c4)ccc32)C1` [Compound 10e, 2-(2-((5-(1-aminoisoquinolin-7-yl)-1-(1-(tert-butoxycarbonyl)azetidin-3-yl)-1H-indazol-3-yl)methoxy)phenyl)acetic acid] was tested, and the IC50 was less than 1000 nM.

`CC(C)n1nc(COc2ccccc2CC(=O)O)c2cc(-c3ccc4c(c3)C(O)CC4)ccc21` (stereo not drawn) [Compound 77c, 2-(2-((5-(3-hydroxy-2,3-dihydro-1H-inden-5-yl)-1-isopropyl-1H-indazol-3-yl)methoxy)phenyl)acetic acid] showed an IC50 greater than 10000 nM.

With `Nc1nccc2c(-c3ccc4c(c3)c(COc3ccccc3CC(=O)O)nn4C3CCCCC3)cccc12` [Compound 225b, 2-(2-((5-(1-aminoisoquinolin-5-yl)-1-cyclohexyl-1H-indazol-3-yl)methoxy)phenyl)acetic acid] the IC50 was less than 1000 nM.

For `CC(C)CCN1CC(n2nc3ccc(-c4cccc5c(N)nccc45)cc3c2COc2ccccc2CC(=O)O)C1` [Compound 121c, 2-(2-((5-(1-aminoisoquinolin-5-yl)-2-(1-isopentylazetidin-3-yl)-2H-indazol-3-yl)methoxy)phenyl)acetic acid], the IC50 was less than 1000 nM.

`Cc1cccc(OC2CC3(CCN(C(=O)OC(C)C)CC3)c3ccc(-c4cccc5c(N)nccc45)cc32)c1CC(=O)O` (stereo not drawn) [Compound 384b, 2-(2-((5-(1-aminoisoquinolin-5-yl)-1′-(isopropoxycarbonyl)-2,3-dihydrospiro[indene-1,4′-piperidin]-3-yl)oxy)-6-methylphenyl)acetic acid] was tested, and the IC50 was less than 1000 nM.

For `CC(C)COC(=O)N1CCC2(CC1)CC(Oc1ccccc1CC(=O)O)c1cc(-c3ccc4ccnc(N)c4c3)ccc12` (stereo not drawn) [Compound 389c, 2-(2-((5-(1-aminoisoquinolin-7-yl)-1′-(isobutoxycarbonyl)-2,3-dihydrospiro[indene-1,4′-piperidin]-3-yl)oxy)phenyl)acetic acid], the IC50 was less than 1000 nM.

Work on `Nc1nccc2c(-c3ccc4nn(C5CCCC5)c(COc5ccccc5CC(=O)O)c4c3)cccc12` [Compound 21e, 2-(2-((5-(1-aminoisoquinolin-5-yl)-2-cyclopentyl-2H-indazol-3-yl)methoxy)phenyl)acetic acid] yielded an IC50 of less than 1000 nM.

With `COCCN1CCC(n2nc(COc3ccccc3CC(=O)O)c3cc(-c4cccc5c(N)nccc45)ccc32)C1` (stereo not drawn) [Compound 303c, 2-(2-((5-(1-aminoisoquinolin-5-yl)-1-(1-(2-methoxyethyl)pyrrolidin-3-yl)-1H-indazol-3-yl)methoxy)phenyl)acetic acid] the IC50 was less than 1000 nM.

Molecule `CC(C)n1nc(COc2ccccc2CC(=O)O)c2cc(-c3cccc4c(N)nn(C)c34)ccc21` [Compound 54c, 2-(2-((3′-amino-1-isopropyl-1′-methyl-1H, 1′H-[5,7′-biindazol]-3-yl)methoxy)phenyl)acetic acid] has an IC50 greater than 10000 nM.

Molecule `CC(C)n1nc(COc2ccccc2CC(=O)O)c2cc(-c3cccc(-c4cnc[nH]4)c3)ccc21` [Compound 51c, 2-(2-((5-(3-(1H-imidazol-5-yl)phenyl)-1-isopropyl-1H-indazol-3-yl)methoxy)phenyl)acetic acid] has an IC50 greater than 10000 nM.

Work on `CC(C)(C)OC(=O)N1CCC2(CC1)C[C@H](Oc1ccccc1CC(=O)O)c1cc(-c3cccc4c(N)nccc34)ccc12` [Compound 392f, (S)-2-(2-((5-(1-aminoisoquinolin-5-yl)-1′-(tert-butoxycarbonyl)-2,3-dihydrospiro[indene-1,4′-piperidin]-3-yl)oxy)phenyl)acetic acid] yielded an IC50 of less than 1000 nM.

With `COc1ccc(CC(=O)O)c(OCc2c(C)oc3ccc(-c4cccc(C(=N)N)c4)cc23)c1` [7 g, 2-(2-((5-(3-carbamimidoylphenyl)-2-methylbenzofuran-3-yl)methoxy)-4-methoxyphenyl)acetic acid] the IC50 was less than 1000 nM.

`Nc1nccc2c(-c3ccc4c(c3)C(Oc3ccccc3CC(=O)O)CC43CCOCC3)cccc12` (stereo not drawn) [Compound 351b, 2-(2-((5-(1-aminoisoquinolin-5-yl)-2,2′,3,3′,5′,6′-hexahydrospiro[indene-1,4′-pyran]-3-yl)oxy)phenyl)acetic acid] gave an IC50 of less than 1000 nM.

With `CCOC(=O)N1CC[C@@H](n2nc(COc3ccccc3CC(=O)O)c3cc(-c4cccc5c(N)nccc45)ccc32)C1` [Compound 340i, (R)-2-(2-((5-(1-aminoisoquinolin-5-yl)-1-(1-(ethoxycarbonyl)pyrrolidin-3-yl)-1H-indazol-3-yl)methoxy)phenyl)acetic acid] the IC50 was less than 1000 nM.

Molecule `CC(C)(C)OC(=O)N1CCC2(CC1)C[C@@H](Oc1ccccc1CC(=O)O)c1cc(-c3cccc4c(N)nccc34)ccc12` [Compound 394e, (R)-2-(2-((5-(1-aminoisoquinolin-5-yl)-1′-(tert-butoxycarbonyl)-2,3-dihydrospiro[indene-1,4′-piperidin]-3-yl)oxy)phenyl)acetic acid] has an IC50 of less than 1000 nM.

For `Nc1nccc2c(-c3ccc4c(c3)[C@H](Oc3ccccc3CC(=O)O)CC4)cccc12` [Compound 216b, (R)-2-(2-((6-(1-aminoisoquinolin-5-yl)-2,3-dihydro-1H-inden-1-yl)oxy)phenyl)acetic acid], the IC50 was less than 1000 nM.
